Experimental findings from ChEMBL document CHEMBL1177845, “Efficient synthesis and identification of novel propane-1,3-diamino bridged CCR5 antagonists with variation on the basic center carrier” (Eur J Med Chem, 2010) are described below.

For test [1], the target named is T1, C-C chemokine receptor type 5 (Homo sapiens, UniProt P51681). The test is described as follows: Antagonist activity at CCR5 expressed in CHO cells assessed as inhibition of RANTES-stimulated GTPgammaS binding at 30 nM by scintillation proximity assay. Background: Binding of GTPγS marks nucleotide exchange on a G protein.
Target sequence in this assay (P51681 whole entry, looked up): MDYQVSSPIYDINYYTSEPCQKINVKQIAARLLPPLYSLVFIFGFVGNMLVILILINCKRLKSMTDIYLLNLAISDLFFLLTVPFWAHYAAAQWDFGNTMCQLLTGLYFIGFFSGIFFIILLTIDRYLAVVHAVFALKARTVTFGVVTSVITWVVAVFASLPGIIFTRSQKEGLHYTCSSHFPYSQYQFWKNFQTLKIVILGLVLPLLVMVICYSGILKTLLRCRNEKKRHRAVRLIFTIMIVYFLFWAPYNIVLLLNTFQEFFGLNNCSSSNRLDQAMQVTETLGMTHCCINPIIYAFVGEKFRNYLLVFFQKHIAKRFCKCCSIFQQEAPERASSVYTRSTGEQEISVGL
Test [2] concerns the target T1, C-C chemokine receptor type 5. The test is described as follows: Antagonist activity at CCR5 expressed in CHO cells assessed as inhibition of RANTES-stimulated GTPgammaS binding at 300 nM by scintillation proximity assay.
Target sequence in this assay (P51681 whole entry, looked up): as above
For test [3] the target is unchanged. The test is described as follows: Antagonist activity at CCR5 expressed in CHO cells assessed as inhibition of RANTES-stimulated GTPgammaS binding by scintillation proximity assay. The class given is functional, cell-based.
Target sequence in this assay (P51681 whole entry): as the sequence (P51681 whole entry, looked up) above

As a reminder, the inhibition is the relative decrease from the control value, in per cent. Usually IC50 stands for the concentration needed to halve the response being measured.

For the compound `CC1(NC(=O)Cc2ccc(Cl)c(Cl)c2)CCN(CC[C@H](NC(=O)C2CCCCC2)c2cccc(F)c2)CC1`, the inhibition in test [1] stood at 36%; in test [2] it was 97%.

`CC(=O)N(c1ccc(N2CCN(CC[C@H](NC(=O)C3CCCCC3)c3ccc(C(F)(F)F)cc3)CC2)cc1)C(C)C`: the IC50 in test [3] was more than 10 µM.

Consider `COc1ccc(C(=O)NC2(C)CCN(CC[C@H](NC(=O)C3CCCCC3)c3cccc(F)c3)CC2)cc1`, for which the inhibition in test [1] turned out to be 9%; in test [2] it was 33%. For `Cc1nc2cccnc2n1[C@H]1C[C@H]2CC[C@@H](C1)N2CC[C@H](NC(=O)c1ccc(F)cc1)c1cccc2ccccc12`, the half-maximal inhibitory concentration (IC50) in test [3] was 10 µM. Turning to `CC1(NC(=O)c2ccc(C(F)(F)F)cc2)CCN(CC[C@H](NC(=O)C2CCCCC2)c2cccc(F)c2)CC1`, the inhibition in test [1] turned out to be 3%; in test [2], 7%. The corresponding values for `CC1(NC(=O)c2cccnc2)CCN(CC[C@H](NC(=O)C2CCCCC2)c2cccc(F)c2)CC1` are 35% and 44%.

Turning to `CC(C)N(Cc1ccccc1)c1ccc(N2CCN(CC[C@H](NC(=O)C3CCCCC3)c3ccc(C(F)(F)F)cc3)CC2)cc1`, in test [3], the IC50 was more than 10 µM. With `COC(=O)C1(Cc2ccccc2)CCN(CC[C@H](NC(=O)C2CCC2)c2ccc(C(F)(F)F)cc2)CC1`, the IC50 in test [3] came out at 10 µM. Consider `CC1(NC(=O)CC23CC4CC(CC(C4)C2)C3)CCN(CC[C@H](NC(=O)C2CCCCC2)c2cccc(F)c2)CC1`, for which the inhibition in test [1] was determined as 21%; in test [2], 46%. `O=C(N[C@@H](CCN1CCC(CO)(Cc2ccccc2)CC1)c1ccc(C(F)(F)F)cc1)C1CCC1`: the IC50 in test [3] is more than 10 µM. With `COC(=O)C1(Cc2ccccc2)CCN(CC[C@H](NC(=O)C2CCC2)c2cccc3ccccc23)CC1`, the IC50 in test [3] was more than 10 µM. For the compound `CC1(NC(=O)Cc2ccc(F)cc2)CCN(CC[C@H](NC(=O)C2CCCCC2)c2cccc(F)c2)CC1`, the inhibition is 31% in test [1] and 95% in test [2]. Taken in the same sequence, the figures for `CC1(NC(=O)C2CCCCC2)CCN(CC[C@H](NC(=O)C2CCCCC2)c2cccc(F)c2)CC1` were 6% and 29%. As for `Cc1nnc(C(C)C)n1[C@H]1C[C@H]2CC[C@@H](C1)N2CC[C@H](NC(=O)COc1ccccc1)c1ccc(C(F)(F)F)cc1`, in test [3], the IC50 was 0.253 µM.

Consider `CC1(NC(=O)Cc2ccc(Cl)cc2)CCN(CC[C@H](NC(=O)C2CCCCC2)c2cccc(F)c2)CC1`, for which the values for the inhibition in test [1] and in test [2] were 28% and 91%, respectively.
